Usually IC50 stands for the concentration that gives 50% inhibition.

Like-named read-outs stand apart in the source and are kept apart here.

Results on 13 compounds are retold here after patent US9850206B2, “S1P and/or ATX modulating agents” (BIOGEN MA INC., priority 2012, dated 2017).

One assay deals with S1P1 (Homo sapiens, UniProt P21453). Kind of assay: S1P receptor activity assay (calcium flux, FLIPR TETRA), S1P1. It counts as cell-based. The source says:
(§1) Agonist percentage activation determinations were obtained by assaying sample compounds and referencing the Emax control for each receptor profiled. Antagonist percentage inhibition determinations were obtained by assaying sample compounds and referencing the control EC80 wells for each receptor profiled. The samples were run using a “Single Addition” assay protocol for the agonist and antagonist assay run. The protocol design was as follows:
(§2) Master stock solution: Unless specified otherwise, all sample compounds were diluted in 100% anhydrous DMSO including all serial dilutions. All control wells contained identical solvent final concentrations as did the sample compound wells.
(§3) Compound plate for assay: The sample compounds were transferred from a master stock solution into a daughter plate that was used in the assay. Each sample compound was diluted into assay buffer (1×HBSS with 20 mM HEPES and 2.5 mM Probenecid) at an appropriate concentration to obtain final concentrations.
(§4) Sample compounds were plated in an eight-point, four-fold dilution series in duplicate with a top concentration of 10 μM. The concentrations described here reflect the final concentration of the compounds during the antagonist assay.
(§5) Reference agonists were handled as mentioned above serving as assay control. The reference agonists were handled as described above for Emax.
(§6) Assay was read for 180 seconds using the […] (This assay run added sample compounds and reference agonist to respective wells). At the completion of the first “Single Addition” assay run, assay plate was removed from the […] and placed at 25° C. for seven (7) minutes.
(§7) Using the EC80 values determined during the agonist assay, stimulated all pre-incubated sample compound and reference antagonist (if applicable) wells with EC80 of reference agonist. Read for 180 seconds using the […] (This assay added reference agonist to respective wells—then fluorescence measurements were collected to calculate percentage inhibition values).
(§8) All plates were subjected to appropriate baseline corrections. Once baseline corrections were processed, maximum fluorescence values were exported and data manipulated to calculate percentage activation, percentage inhibition and Z′.
(In general: Calcium assays in cells follow changes in intracellular calcium, usually with a dye or a luminescent sensor.)

Another assay addresses T1, S1P4 (Homo sapiens, UniProt O95977).
T1 sequence (O95977 1-384): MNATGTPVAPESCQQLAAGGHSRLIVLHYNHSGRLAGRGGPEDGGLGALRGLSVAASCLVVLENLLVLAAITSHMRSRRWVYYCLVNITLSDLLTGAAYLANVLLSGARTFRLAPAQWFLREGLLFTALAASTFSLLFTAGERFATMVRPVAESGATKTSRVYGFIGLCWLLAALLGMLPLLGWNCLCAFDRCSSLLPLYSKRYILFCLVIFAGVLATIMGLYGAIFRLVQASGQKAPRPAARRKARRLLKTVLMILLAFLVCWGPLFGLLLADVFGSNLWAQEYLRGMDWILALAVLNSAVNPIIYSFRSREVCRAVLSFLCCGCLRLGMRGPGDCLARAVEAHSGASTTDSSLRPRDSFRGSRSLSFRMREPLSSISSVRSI
Kind of assay: S1P receptor activity assay (calcium flux, FLIPR TETRA), S1P4. The class given is cell-based.
Excerpt: as §1, §2, §3, §4, §5, §6, §7, §8

Another assay addresses S1P5 (Homo sapiens, UniProt Q9H228). Kind of assay: S1P receptor activity assay (calcium flux, FLIPR TETRA), S1P5. It counts as cell-based.
Excerpt: as §1, §2, §3, §4, §5, §6, §7, §8

The target in another assay is T2, Human ATX protein (Homo sapiens, UniProt Q13822).
T2 construct: made in house
As to the kind of experiment: Autotaxin (ATX) FRET assay with FS-3 substrate. It counts as biochemical. The source says: ATX (Autotaxin) is a 125 KDa glycoprotein with lysophospholipase D (LPLD) activity that generates the bioactive lipid lysophosphatidic acid (LPA) from lysophosphatidylcholine (LPC). The ATX biochemical assay utilizes a FRET (fluorescence resonance energy transfer) technology platform. […] ATX catalyzes the hydrolysis of the substrate which separates the dabsyl quencher from the fluorescein reporter, which becomes fluorescent. The reaction is monitored by a SpectraMax M5 (Molecular Devices, Sunnyvale, Calif.) with at excitation wavelength 485 nm and emission wavelength 535 nm.
Fatty acid free-BSA (Sigma A8806): 10 mg/mL in H2O, stored at 4° C.
2×ATX assay buffer: 100 mM Tris, 280 mM NaCl, 10 mM KCl, 2 mM CaCl2, 2 mM MgCl2, pH 7.4.
Human ATX protein: expressed and purified in house. Stored at −80° C.
Substrate FS-3 (Echelon, L-2000): 100 μg in 77.74 μL H2O (1 mM stock), stored at −20° C.
Compound dilution—All compounds were provided at 10 mM in 100% DMSO. In the first well, 2 μL of 10 mM compound was added to 78 μL of DMSO (1:40 dilution). In subsequent wells 3-fold dilution (total 10 dilutions) were performed.
1×ATX assay buffer was made up with a final concentration of 1 mg/mL fatty acid free-BSA using 2×ATX assay buffer, 10 mg/ml fatty acid free-BSA and ddH2O.
38 μL was added per well to the assay plate. The final concentration of ATX in the reaction as 1.0 μg/mL.
2 μL per well of compounds was transferred to provide the desired concentration. The plate was centrifuged, then incubated at room temperature for 30 minutes on the shaker.
FS-3 was diluted with 1×ATX assay buffer to a concentration of FS-3 of 10 μM (5×). Then, 10 μL was added per well to the assay plate. The final concentration of FS-3 in the reaction was 2 μM. The plate was centrifuged. The plate was kept shaking at room temperature for 2 hours. Because FS-3 substrate is light sensitive, plates were kept covered and protected from light.

For assay [1], the system named is OPCs (oligodendrocyte precursor cells). Kind of assay: OPC differentiation assay. It counts as cell-based, Sprague Dawley rats. Particulars: 2 μM and 20 μM, 3-day incubation. The method, then: Enriched populations of oligodendrocytes were grown from post-natal day 2 (P2) female Sprague Dawley rats. The forebrain was dissected out and placed in Hank's buffered saline solution (HBSS; Invitrogen, Grand Island, N.Y.). The tissue was cut into 1 mm fragments and incubated at 37° C. for 15 minutes in 0.01% trypsin and 10 μg/mL DNase. Dissociated cells were plated on poly-L-lysine-coated T75 tissue culture flasks and grown at 37° C. for 10 days in Dulbecco's modified Eagle's medium (DMEM) with 20% fetal calf serum (Invitrogen). A2B5+OPCs were collected by shaking the flask overnight at 200 rpm and 37° C., resulting in a 95% pure population.
For the differentiation assay, 2 μM and 20 μM antagonist or the same concentrations of vehicle (DMSO) were applied to OPCs cultured in CNTF/T3 containing media. After a 3-day incubation, […], cell were lysed and then subjected to MSD (Meso Scale Discovery-R) analysis. EC50 was calculated by Prism using a nonlinear sigmoidal dose-response curvecells. […] After centrifugation at 14,000 g for 15 minutes, the supernatants were boiled in Laemmli sample buffer, subjected to 4-20% SDS-PAGE, and analyzed by Western blotting with anti-MBP, anti-myelin-associated glycoprotein (MAG), or anti-beta actin antibodies. […]

Setting [2] is: calcium flux, top concentration 10 μM, the >5 μM sentence says only 'for S1P1', read-out: IC50 for S1P1 agonist activity.
[3] abbreviates: calcium flux, top concentration 10 μM, the >5 μM sentence says only 'for S1P4', read-out: IC50 for S1P4 agonist activity.
[4] abbreviates: calcium flux, top concentration 10 μM, read-out: IC50 for S1P5.
The mark [5] stands for this setting: FS-3 2 μM, ATX 1.0 μg/mL, 2 hours at room temperature, read-out: IC50 (ATX).

Chain of S1P1 (P21453 whole entry): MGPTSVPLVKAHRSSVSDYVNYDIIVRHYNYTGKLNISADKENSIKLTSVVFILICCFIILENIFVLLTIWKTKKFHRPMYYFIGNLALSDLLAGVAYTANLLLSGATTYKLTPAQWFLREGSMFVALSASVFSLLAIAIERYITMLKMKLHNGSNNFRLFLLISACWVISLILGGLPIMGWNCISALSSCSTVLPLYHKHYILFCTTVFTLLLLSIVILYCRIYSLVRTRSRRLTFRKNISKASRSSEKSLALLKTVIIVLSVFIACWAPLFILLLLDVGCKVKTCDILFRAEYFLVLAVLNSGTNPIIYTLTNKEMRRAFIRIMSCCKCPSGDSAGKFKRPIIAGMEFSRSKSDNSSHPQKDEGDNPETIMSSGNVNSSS
Chain of S1P5 (Q9H228 whole entry): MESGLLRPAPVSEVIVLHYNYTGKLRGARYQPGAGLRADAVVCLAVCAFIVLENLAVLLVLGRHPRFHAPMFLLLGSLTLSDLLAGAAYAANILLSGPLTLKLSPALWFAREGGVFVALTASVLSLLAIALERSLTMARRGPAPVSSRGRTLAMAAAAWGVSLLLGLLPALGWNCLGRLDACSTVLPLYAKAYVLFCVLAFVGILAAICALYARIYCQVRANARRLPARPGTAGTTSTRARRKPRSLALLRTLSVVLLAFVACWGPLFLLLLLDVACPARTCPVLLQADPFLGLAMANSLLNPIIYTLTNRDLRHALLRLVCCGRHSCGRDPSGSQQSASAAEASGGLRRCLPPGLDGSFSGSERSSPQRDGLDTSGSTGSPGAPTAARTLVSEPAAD

On to `CCCCCCCCOc1ccc(N2CCN(CCC(=O)O)CC2)cc1` [Example 14, 3-(4-(4-(Octyloxy)phenyl)piperazin-1-yl)propanoic acid], for which the IC50 at S1P1 is over 5 µM; at S1P4, at most 2 µM; on S1P5 it was over 5 µM; at Human ATX protein, over 10 µM. In addition, the “result in the OPC assay” value in assay [1] is given as “positive”.
Take `CCCCCCCCOc1ccc(N2CCN(CC34CCC(C(=O)O)(CC3)CC4)CC2)cc1` [Example 16, 4-((4-(4-(Octyloxy)phenyl)piperazin-1-yl)methyl)bicyclo[2.2.2]octane-1-carboxylic acid]: the IC50 at S1P1 was over 5 µM; at S1P4 it was at most 5 µM; at S1P5 it was over 5 µM; against Human ATX protein it was at most 5 µM. Moreover, the “result in the OPC assay” value in assay [1] is recorded as “positive”.
For the compound `CC[C@H]1CC[C@@H](Oc2ccc(C3CCN(CCCCC(=O)O)CC3)cc2)CC1` [Example 38, 5-(4-(4-((cis-4-Ethylcyclohexyl)oxy)phenyl)piperidin-1-yl)pentanoic acid], the IC50 on S1P1 (setting [2]) is 2 to 5 µM; on S1P4 (setting [3]), at most 2 µM; on S1P5 (setting [4]) it was over 5 µM; on Human ATX protein (setting [5]), over 10 µM.
`O=C(O)CCN1CC=C(c2ccc(OC3CCC4(CCCC4)CC3)cc2)CC1` [Example 39, 3-(4-(4-(Spiro[4.5]decan-8-yloxy)phenyl)-5,6-dihydropyridin-1(2H)-yl)propanoic acid]: the IC50 at S1P1 is over 5 µM; on S1P4 it was 2 to 5 µM; at S1P5, over 5 µM; on Human ATX protein, over 10 µM.
As for `O=C(O)CCN1CCC(c2ccc(OC3CCC4(CCCC4)CC3)cc2)CC1` [Example 40, 3-(4-(4-(Spiro[4.5]decan-8-yloxy)phenyl)piperidin-1-yl)propanoic acid], the IC50 is 2 to 5 µM on S1P1 (setting [2]), at most 2 µM at S1P4 (setting [3]), at most 2 µM on S1P5 (setting [4]) and at most 5 µM on Human ATX protein (setting [5]).
Consider `O=C(O)CCCN1CC=C(c2ccc(OC3CCC4(CCCC4)CC3)cc2)CC1` [Example 41, 4-(4-(4-(Spiro[4.5]decan-8-yloxy)phenyl)-5,6-dihydropyridin-1(2H)-yl)butanoic acid], for which the half-inhibitory concentration (IC50) at S1P1 (setting [2]) was over 5 µM; on S1P4 (setting [3]), 2 to 5 µM; on S1P5 (setting [4]), 2 to 5 µM; on Human ATX protein (setting [5]), at most 5 µM.
With `O=C(O)CCCN1CCC(c2ccc(OC3CCC4(CCCC4)CC3)cc2)CC1` [Example 42, 4-(4-(4-(Spiro[4.5]decan-8-yloxy)phenyl)piperidin-1-yl)butanoic acid], the 50% inhibitory concentration (IC50) at S1P1 (setting [2]) is over 5 µM; at S1P4 (setting [3]), 2 to 5 µM; on S1P5 (setting [4]), over 5 µM; at Human ATX protein (setting [5]), 5 to 10 µM.
As for `O=C(O)CCCCN1CC=C(c2ccc(OC3CCC4(CCCC4)CC3)cc2)CC1` [Example 43, 5-(4-(4-(Spiro[4.5]decan-8-yloxy)phenyl)-5,6-dihydropyridin-1(2H)-yl)pentanoic acid], the IC50 is over 5 µM at S1P1, 2 to 5 µM on S1P4, over 5 µM at S1P5 (setting [4]) and over 10 µM at Human ATX protein (setting [5]).
Turning to `O=C(O)CCCCN1CCC(c2ccc(OC3CCC4(CCCC4)CC3)cc2)CC1` [Example 44, 5-(4-(4-(Spiro[4.5]decan-8-yloxy)phenyl)piperidin-1-yl)pentanoic acid], the IC50 at S1P1 (setting [2]) is over 5 µM; at S1P4 (setting [3]), at most 2 µM; on S1P5 (setting [4]), at most 2 µM; at Human ATX protein (setting [5]) it was over 10 µM.
For the compound `CC(C)(C)[C@H]1CC[C@H](Oc2ccc(C3=CCN(CCC(=O)O)CC3)cc2)CC1` [Example 45, 3-(4-(4-((trans-4-(tert-Butyl)cyclohexyl)oxy)phenyl)-5,6-dihydropyridin-1(2H)-yl)propanoic acid], the half-maximal inhibitory concentration (IC50) on S1P1 was 2 to 5 µM; on S1P4, at most 2 µM; at S1P5 (setting [4]), over 5 µM; on Human ATX protein (setting [5]), 5 to 10 µM.
As for `CC(C)(C)[C@H]1CC[C@H](Oc2ccc(C3CCN(CCC(=O)O)CC3)cc2)CC1` [Example 46, 3-(4-(4-((trans-4-(tert-Butyl)cyclohexyl)oxy)phenyl)piperidin-1-yl)propanoic acid], the IC50 was at most 2 µM at S1P1 (setting [2]), at most 2 µM on S1P4 (setting [3]), over 5 µM on S1P5 (setting [4]) and 5 to 10 µM at Human ATX protein (setting [5]).
Take `CC(C)(C)[C@H]1CC[C@H](Oc2ccc(C3=CCN(CCCC(=O)O)CC3)cc2)CC1` [Example 47, 4-(4-(4-((trans-4-(tert-Butyl)cyclohexyl)oxy)phenyl)-5,6-dihydropyridin-1(2H)-yl)butanoic acid]: the half-maximal inhibitory concentration (IC50) at S1P1 was at most 2 µM; at S1P4 it was at most 2 µM; on S1P5 (setting [4]), at most 2 µM; at Human ATX protein (setting [5]), at most 5 µM.
`CC(C)(C)[C@H]1CC[C@H](Oc2ccc(C3CCN(CCCC(=O)O)CC3)cc2)CC1` [Example 48, 4-(4-(4-((trans-4-(tert-Butyl)cyclohexyl)oxy)phenyl)piperidin-1-yl)butanoic acid]: the IC50 was at most 2 µM on S1P1 (setting [2]), at most 2 µM on S1P4 (setting [3]), at most 2 µM at S1P5 (setting [4]) and at most 5 µM on Human ATX protein (setting [5]).
